According to patent publication US7888380B2, “1,2,4-Triazolylaminoaryl (heteroaryl) sulfonamide derivatives” (Janssen Pharmaceutica, N.V., priority 2004, dated 2011):
Counter-ions that a name gives are not always drawn. Like-named read-outs stand apart in the source and are kept apart here.

Tests used:
CDK2:Cyclin-E = CDK2:Cyclin-E (Homo sapiens, UniProt P24941); test: CDK2 Screening Assay (33P-ATP FlashPlate); type: biochemical; conditions: 10 μM ATP; >10 or >100 = less than 50% inhibition at highest concentration tested
Method: A kinase reaction mixture was prepared containing 50 mM Tris-HCl pH=8, 10 mM MgCl2, 0.1 mM Na3PO4, 1 mM DTT, 10 μM ATP, 0.025 μM biotinylated histone-H1 peptide substrate and 0.2 μCuries per well ^33P-γ-ATP (2000-3000 Ci/mmol). 70 μL of the kinase reaction mixture was dispensed into the well of a streptavidin coated FlashPlate™ (Cat. # SMP103, NEN, Boston, Mass.). Then 1 μL of test compound stock in 100% DMSO was added to the wells resulting in a final concentration of 1% DMSO in the reaction with a 100 μl final reaction volume. Next, CDK2:Cyclin-E protein was diluted in 50 mM Tris-HCl pH=8.0, 0.1% BSA at a concentration of 1 ng per μL and 30 μL (30 ng enzyme per test well) was added to each well to initiate the reaction. The reaction was incubated for one hour at 30° C. At the end of the 1 h incubation, the reaction was terminated by aspirating the mixture from the plate and washing the wells twice with PBS containing 100 mM EDTA. The histone-H1 biotinylated peptide substrate became immobilized on the Flashplate™ and the incorporation of ^33P-γ-ATP was measured by reading the plate on a scintillation counter. Inhibition of the enzymatic activity of CDK2 was measured by observing a reduced amount of ^33P-γ-ATP incorporated into the immobilized peptide. […]

VEGF-R2 kinase = target: T1, VEGF-R2 kinase (Rattus norvegicus, UniProt O08775); test: VEGF-R2 Kinase Screening Assay; type: biochemical; conditions: 10 μM ATP; rat VEGF-R2 kinase domain; read-out: IC50 (μM) VEGFR
T1 construct: 6xHis (polyhistidine) (N)
Method: A kinase reaction mixture was prepared containing 50 mM Tris-HCl pH=8, 10 mM MgCl2, 0.1 mM Na3PO4, 1 mM DTT, 10 μM ATP, 0.025 μM biotinylated peptide substrate and 0.8 μCuries per well ^33P-γ-ATP (2000-3000 Ci/mmol). 70 μL of the kinase reaction mixture was dispensed into each well of a streptavidin coated FlashPlate™ (Cat. # SMP103, NEN, Boston, Mass.). Then 1 μL of test compound stock in 100% DMSO was added to the wells resulting in a final concentration of 1% DMSO in the reaction with a 100 μL final reaction volume. Next, soluble rat tyrosine kinase containing an N-terminal 6×HIS tag was diluted in 50 mM Tris-HCl pH=8.0, 0.1% BSA at a concentration of 5 ng per μL and 30 μL (150 ng enzyme per test well) was added to each well to initiate the reaction. The reaction was incubated for one hour at 30° C. At the end of the 1 h incubation, the reaction was terminated by aspirating the reaction mixture from the plate and washing the wells twice with PBS containing 100 mM EDTA. The PLC1 biotinylated peptide substrate became immobilized on the Flashplate™ and the incorporation of ^33P-γ-ATP was measured by reading the plate on a scintillation counter. Inhibition of the enzymatic activity of the VEGF-R2 kinase was measured by observing a reduced amount of ^33P-γ-ATP incorporated into the immobilized peptide.
(§1) VEGF-R (vascular endothelial growth factor receptor-2) is a fusion protein containing a polyhistidine tag at the N-terminus followed by amino acids 786-1343 of the rat VEGF-R2 kinase domain (GenBank Accession #U93306). CDK1 (cyclin dependent kinase 1) was isolated from insect cells expressing both the human CDK1 catalytic subunit and its positive regulatory subunit cyclin B (New England Biolabs, Beverly, Mass., Cat. # 6020). CDK2 in complex with cyclin A is commercially available (Upstate Biotech, Lake Placid, N.Y.). The HER2 (human epidermal growth factor receptor-2) construct contains a polyhistidine tag at the N-terminus followed by 24 additional amino acids and begins at amino acid 676 followed by the remainder of the HER2 cytoplasmic domain.

HER2 = target: T2, HER2 (Homo sapiens, UniProt P04626); test: HER2 Kinase Screening Assay; type: biochemical; conditions: 10 μM ATP; >10 or >100 = less than 50% inhibition at highest concentration tested
T2 construct: polyhistidine (N)
Method: The HER2 kinase assay was carried out as described above for the VEGF-R kinase assay except that the enzyme was replaced with a human epidermal growth factor receptor-2 (HER2) construct contains a polyhistidine tag at the N-terminus followed by 24 additional amino acids and begins at amino acid 676 (Accession #M11730) followed by the remainder of the HER2 cytoplasmic domain.
as §1

HCT-116 colon carcinoma = test: Inhibition of cell proliferation (14C-thymidine incorporation), HCT116; type: cell-based, human
Method: (§2) The ability of a test compound to inhibit the proliferation of cell growth was determined by measuring incorporation of ^14C-labelled thymidine into newly synthesized DNA within the cells. This method was used on cell lines derived from carcinomas originating from several tissues such as HeLa cervical adenocarcinoma (American Type Culture Collection (ATCC), Virginia, Cat. #CCL-2), A375 malignant melanoma (ATCC CRL-1619), and HCT-116 colon carcinoma (CCL-247). In this way the effect of a compound on cell growth of cells with many different phenotypes can be determined. Cells were trypsinized and counted and 3000-8000 cells were added to each well of a 96-well CytoStar tissue culture treated scintillating microplate (Amersham #RPNQ0160) in complete medium in a volume of 100 μl. Cells were incubated for 24 hours in complete medium at 37° C. in an atmosphere containing 5% CO2.
(§3) Next, 1 μl of test compound in 100% DMSO was added to the wells of the plate. DMSO only was added to control wells. Cells were incubated for 24 more hours in complete medium at 37° C. in an atmosphere containing 5% CO2. Methyl ^14C-thymidine 56 mCi/mmol (NEN #NEC568 or Amersham #CFA532) was diluted in complete medium and 0.2 uCi/well was added to each well of the CytoStar plate in a volume of 20 ul. The plate was incubated for 24 hours at 37° C. plus 5% CO2 in drug plus ^14C-thymidine. The contents of the plate were discarded into a ^14C radioactive waste container by inverting the plate and the plate was washed twice with 200 μl PBS.
(§4) 200 μl of PBS was added to each well. The top of the plate was sealed with a transparent plate sealer and a white plate backing sealer (Packard #6005199) was applied to the bottom of the plate. The degree of methyl ^14C-thymidine incorporation was quantified on a Packard Top Count.

A375 malignant melanoma = test: Inhibition of cell proliferation (14C-thymidine incorporation), A375; type: cell-based, human
Method: as §2, §3, §4

T1 sequence (O08775 786-1343): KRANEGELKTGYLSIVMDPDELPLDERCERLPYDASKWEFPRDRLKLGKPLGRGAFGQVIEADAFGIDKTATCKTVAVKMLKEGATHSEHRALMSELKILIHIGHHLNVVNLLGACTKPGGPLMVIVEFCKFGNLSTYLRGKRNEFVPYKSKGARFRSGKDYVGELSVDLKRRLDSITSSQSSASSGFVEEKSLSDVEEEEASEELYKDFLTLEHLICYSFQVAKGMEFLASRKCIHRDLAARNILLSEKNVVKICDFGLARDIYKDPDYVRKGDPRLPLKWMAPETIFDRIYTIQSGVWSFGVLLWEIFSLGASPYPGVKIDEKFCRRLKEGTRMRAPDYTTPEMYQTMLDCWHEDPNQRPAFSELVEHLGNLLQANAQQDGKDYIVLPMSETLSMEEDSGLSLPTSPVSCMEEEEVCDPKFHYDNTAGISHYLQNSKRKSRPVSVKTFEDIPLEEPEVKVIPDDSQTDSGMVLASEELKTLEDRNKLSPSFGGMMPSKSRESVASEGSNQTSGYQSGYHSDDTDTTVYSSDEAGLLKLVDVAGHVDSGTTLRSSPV

| Compound | IC50 (CDK2:Cyclin-E) [µM] | IC50 (VEGF-R2 kinase) [µM] | IC50 (HER2) [µM] | IC50 (HCT-116 colon carcinoma) [µM] | IC50 (A375 malignant melanoma) [µM] | IC50 (HCT-116 colon carcinoma; Homo sapiens, HCT-116) [µM] | IC50 (A375 malignant melanoma; Homo sapiens, A-375) [µM] |
| --- | --- | --- | --- | --- | --- | --- | --- |
| 4-[5-amino-1-(2,6-difluoro-benzoyl)-1H-[1,2,4]triazol-3-ylamino]-N-propionyl-benzenesulfonamide [Compound 20] | 0.28 | 1 | ≥ 10 | > 10 | > 10 |  |  |
| Nc1nc(Nc2ccc(S(=O)(=O)NC(=O)CCC(=O)O)cc2)nn1C(=O)c1c(F)cccc1F [Compound 1, 4-{4-[5-amino-1-(2,6-difluoro-benzoyl)-1H-[1,2,4]triazol-3-ylamino]-benzenesulfonylamino}-4-oxo-butyric acid] | 0.07 | 1.66 | ≥ 10 |  |  | > 100 | 20.3 |
| NCC(=O)NS(=O)(=O)c1ccc(Nc2nc(N)n(C(=O)c3c(F)cccc3F)n2)cc1 [Compound 2, N-(2-amino-acetyl)-4-[5-amino-1-(2,6-difluoro-benzoyl)-1H-[1,2,4]triazol-3-ylamino]-benzenesulfonamide] | 0.12 | 1.97 | ≥ 10 |  |  | 37 | 9.45 |
| COCCOCC(=O)NS(=O)(=O)c1ccc(Nc2nc(N)n(C(=O)c3c(F)cccc3F)n2)cc1 [Compound 3, 4-[5-amino-1-(2,6-difluoro-benzoyl)-1H-[1,2,4]triazol-3-ylamino]-N-[2-(2-methoxy-ethoxy)-acetyl]-benzenesulfonamide] | 0.25 | 2.56 | ≥ 10 |  |  | > 10 | > 100 |
| Nc1nc(Nc2ccc(S(=O)(=O)NC(=O)Cn3cnnn3)cc2)nn1C(=O)c1c(F)cccc1F [Compound 4, 4-[5-amino-1-(2,6-difluoro-benzoyl)-1H-[1,2,4]triazol-3-ylamino]-N-(2-tetrazol-1-yl-acetyl)-benzenesulfonamide] | 0.43 | 2.34 | ≥ 10 |  |  | > 100 | > 100 |
| CN1CCN(CCC(=O)NS(=O)(=O)c2ccc(Nc3nc(N)n(C(=O)c4c(F)cccc4F)n3)cc2)CC1 [Compound 5, 4-[5-amino-1-(2,6-difluoro-benzoyl)-1H-[1,2,4]triazol-3-ylamino]-N-[3-(4-methyl-piperazin-1-yl)-propionyl]-benzenesulfonamide] | 0.27 | 1.88 | ≥ 10 |  |  | > 10 | > 100 |
| CN(C)CC(=O)NS(=O)(=O)c1ccc(Nc2nc(N)n(C(=O)c3c(F)cccc3F)n2)cc1 [Compound 6, 4-[5-amino-1-(2,6-difluoro-benzoyl)-1H-[1,2,4]triazol-3-ylamino]-N-(2-dimethylamino-acetyl)-benzenesulfonamide] | 0.32 | 1.22 | ≥ 10 |  |  | > 10 | > 100 |
| Nc1nc(Nc2ccc(S(=O)(=O)NC(=O)CCN3CCOCC3)cc2)nn1C(=O)c1c(F)cccc1F [Compound 7, 4-[5-amino-1-(2,6-difluoro-benzoyl)-1H-[1,2,4]triazol-3-ylamino]-N-(3-morpholin-4-yl-propionyl)-benzenesulfonamide] | 0.12 | 1.65 | > 100 |  |  | 50.8 | > 100 |
| CCOC(=O)CCC(=O)NS(=O)(=O)c1ccc(Nc2nc(N)n(C(=O)c3c(F)cccc3F)n2)cc1 [Compound 8, 4-{4-[5-amino-1-(2,6-difluoro-benzoyl)-1H-[1,2,4]triazol-3-ylamino]-benzenesulfonylamino}-4-oxo-butyric acid ethyl ester] | 0.06 | 0.47 | 1.23 |  |  | 40.1 | > 10 |
| COCCOCCOCC(=O)NS(=O)(=O)c1ccc(Nc2nc(N)n(C(=O)c3c(F)cccc3F)n2)cc1 [Compound 9, 4-[5-amino-1-(2,6-difluoro-benzoyl)-1H-[1,2,4]triazol-3-ylamino]-N-{2-[2-(2-methoxy-ethoxy)-ethoxy]-acetyl}-benzenesulfonamide] | 0.44 | ≥ 100 | > 100 |  |  | > 100 | > 10 |
| COCCOCCOCC(=O)Nc1nc(Nc2ccc(S(N)(=O)=O)cc2)nn1C(=O)c1c(F)cccc1F [Compound 10, N-[2-(2,6-difluoro-benzoyl)-5-(4-sulfamoyl-phenylamino)-2H-[1,2,4]triazol-3-yl]-2-[2-(2-methoxy-ethoxy)-ethoxy]-acetamide] | 0.3 | 1.76 | > 100 |  |  | > 100 | > 100 |
| Nc1nc(Nc2ccc(S(=O)(=O)NC(=O)CCCC(=O)O)cc2)nn1C(=O)c1c(F)cccc1F [Compound 11, 5-{4-[5-amino-1-(2,6-difluoro-benzoyl)-1H-[1,2,4]triazol-3-ylamino]-benzenesulfonylamino}-5-oxo-pentanoic acid] | 1.53 | 2.77 | > 100 |  |  | > 100 | > 100 |
| Nc1nc(Nc2ccc(S(=O)(=O)NC(=O)COCCOCCOCC(=O)O)cc2)nn1C(=O)c1c(F)cccc1F [Compound 12, {2-[2-(2-{4-[5-amino-1-(2,6-difluoro-benzoyl)-1H-[1,2,4]triazol-3-ylamino]-benzenesulfonylamino}-2-oxo-ethoxy)-ethoxy]-ethoxy}-acetic acid.2TFA salt] | 0.08 | 16.8 | > 100 |  |  | > 10 | > 10 |
| Nc1nc(Nc2ccc(S(=O)(=O)NC(=O)[C@@H](N)CO)cc2)nn1C(=O)c1c(F)cccc1F [Compound 13, 4-[5-amino-1-(2,6-difluoro-benzoyl)-1H-[1,2,4]triazol-3-ylamino]-N—((S)-2-amino-3-hydroxy-propionyl)-benzenesulfonamide] | 0.14 | 1.54 | ≥ 10 |  |  | 71.2 | > 10 |
